# Laboratory results: the RepoRT retention time repository
# Assay: HILIC, Waters Atlantis Premier BEH Z-HILIC, 100 × 2.1 mm, 1.7 µm, 40 °C, 0.15 mL/min, estimated dead time 1.5 min; A: water + 20 mM ammonium carbonate + 5 µM medronic acid; B: 10% water + 90% acetonitrile + 2 mM ammonium carbonate + 0.5 µM medronic acid; gradient (min/%B) 0/95 18/60 18.1/20 21.5/20 22/95 23.5/95 25.5/95
# Conditions: stereoisomer not certain
row,SMILES,LC retention time [min]
1,O=C1CC(C(=O)O)NC(=O)N1 (stereo not given) [dihydroorotic acid],4.65
2,CC(=O)NC1C(OP(=O)(O)OP(=O)(O)OCC2OC(n3ccc(=O)[nH]c3=O)C(O)C2O)OC(CO)C(O)C1O (stereo not given) [UDP-GlcNAc],10.5
3,C[N+](C)(C)CC(O)CC(=O)[O-] (stereo not given) [Carnitine],10.4
4,O=C(O)CC(C(=O)O)C(O)C(=O)O (stereo not given) [Isocitric acid],14.6
5,O=C(O)C(CO)OP(=O)(O)O (stereo not given) [Phosphoglyceric acid A],13.4
6,O=C(O)CCC(=O)C(=O)O [2-Oxoglutaric acid],9.44
7,O=P(O)(O)OCC1OC(O)C(O)C(O)C1O (stereo not given) [Glucose-6-phosphate],13.3
8,O=C(CO)C(O)C(O)C(O)COP(=O)(O)O (stereo not given) [Fructose 6-phosphate],12.2
9,C=C(OP(=O)(O)O)C(=O)O [PEP],14.4
10,CC(C)CC(N)C(=O)O (stereo not given) [Leucine],6.18
11,CC(O)C(=O)O (stereo not given) [Lactic Acid],3.43
12,O=P(O)(O)OCC(O)CO (stereo not given) [Glycerol-3-phosphate],10.9
13,NC(=O)CCC(N)C(=O)O (stereo not given) [Glutamine],11
14,O=C(O)CC(O)(CC(=O)O)C(=O)O [Citric acid],14.8
15,CCC(=O)OC(CC(=O)[O-])C[N+](C)(C)C (stereo not given) [carnitine-C3],6.75
16,O=C(O)CCC(O)C(=O)O (stereo not given) [2-hydroxy glutaric acid],10
17,"O=P(O)(O)OCC1OC(O)(COP(=O)(O)O)C(O)C1O (stereo not given) [Fructose-1,6-bisphosphate]",16.9
18,NC(CCC(=O)O)C(=O)O (stereo not given) [Glutamic acid],10.3
19,O=C(O)CCCCC1SCC2NC(=O)NC21 (stereo not given) [Biotin],4.54
20,O=C(O)CCC(=O)O [Succinic Acid],10.1
21,Nc1ncnc2c1ncn2C1OC(CO)C(O)C1O (stereo not given) [Adenosine],4.12
22,OCC1OC(O)C(O)C(O)C1O (stereo not given) [Hexose],7.88
23,CCC(C)C(N)C(=O)O (stereo not given) [Isoleucine],6.62
24,O=C(CO)COP(=O)(O)O [Triose phosphate],10.8

# The next lines start with the values.
row,LC retention time [min],SMILES
1,10.9,NC(=O)c1ccc[n+](C2OC(COP(=O)(O)OP(=O)(O)OCC3OC(n4cnc5c(N)ncnc54)C(O)C3O)C(O)C2O)c1 (stereo not given) [NAD]
2,10.9,CC(=O)SCCNC(=O)CCNC(=O)C(O)C(C)(C)COP(=O)(O)OP(=O)(O)OCC1OC(n2cnc3c(N)ncnc32)C(O)C1OP(=O)(O)O (stereo not given) [Acetyl-CoA]
3,9.98,Nc1ncnc2c1ncn2C1OC(COP(=O)(O)O)C(O)C1O (stereo not given) [AMP]
4,14.4,NC(=O)c1ccc[n+](C2OC(COP(=O)(O)OP(=O)(O)OCC3OC(n4cnc5c(N)ncnc54)C(OP(=O)(O)O)C3O)C(O)C2O)c1 (stereo not given) [NADP]
5,14.3,Nc1ncnc2c1ncn2C1OC(COP(=O)(O)OP(=O)(O)OP(=O)(O)O)C(O)C1O (stereo not given) [ATP]
6,12.9,CC(C)(COP(=O)(O)OP(=O)(O)OCC1OC(n2cnc3c(N)ncnc32)C(O)C1OP(=O)(O)O)C(O)C(=O)NCCC(=O)NCCS (stereo not given) [CoenzymeA]
7,9.07,NC(=O)C1=CN(C2OC(COP(=O)(O)OP(=O)(O)OCC3OC(n4cnc5c(N)ncnc54)C(O)C3O)C(O)C2O)C=CC1 (stereo not given) [NADH]
8,17.2,Nc1nc2c(ncn2C2OC(COP(=O)(O)OP(=O)(O)OP(=O)(O)O)C(O)C2O)c(=O)[nH]1 (stereo not given) [GTP]
9,7.66,Cc1cc2nc3c(=O)[nH]c(=O)nc-3n(CC(O)C(O)C(O)COP(=O)(O)OP(=O)(O)OCC3OC(n4cnc5c(N)ncnc54)C(O)C3O)c2cc1C (stereo not given) [FAD]
10,15,NC(=O)C1=CN(C2OC(COP(=O)(O)OP(=O)(O)OCC3OC(n4cnc5c(N)ncnc54)C(OP(=O)(O)O)C3O)C(O)C2O)C=CC1 (stereo not given) [NADPH]
11,12.2,Nc1ncnc2c1ncn2C1OC(COP(=O)(O)OP(=O)(O)O)C(O)C1O (stereo not given) [ADP]
